From patent US20050084500A1, “Growth promoter composition for animals” (priority 2001, published 2005)
Where two headings read alike, the source gives them in different places.

Assays:
[1] = Influence of Lentinus edodes on the zootechnic performance of poultry (feeding trial); assay type: in vivo, chickens; conditions: Lentinus edodes at 0.5% of feed where present; for FCR: feed conversion ratio, chickens, end of trial; for Daily growth: one day old chickens, feed ad libitum
From the text: 20×40 one day old chickens were provided with following feeds: control feed, control feeds supplemented with a growth-promoting component, control feed supplemented with 0.5% fungi (Lentinus edodes) and control feed supplemented with a growth-promoting component and with 0.5% fungi (Lentinus edodes). As used herein, the term “control feed” refers to a standard animal feed for meat-producing animals, i.e. feed that can be used in the animal husbandry field and is suitable to be fed to meat-producing animals to supply part or all of the meat-producing animal's nutrient requirements. Water and feed were supplied ad libitum. At the end of the trial, chickens were weighed and feed conversion ratio's were determined (Table 1). Microbial contents in the gastrointestinal tract were determined by plate counting.

[2] = assay type: in vivo; conditions: for FCR: feed conversion ratio per trial group; for FCR / Mortality: piglets 7-20 kg; for Mortality: whole trial; for Number of veterinary treatments: sum of all treatments performed on the animals during the total period of the trial; for Daily growth: weaned piglets, 7-20 kg, fed ad libitum
From the text: The present example relates to the effects of a composition according to the invention comprising a fungus at and least one growth promoting element on piglet performance of piglets in the phase 7-20 kg.
Commercial available weaning and starter feeds were used. During the first 2 weeks, a weaning feed was given to the piglets. From the third week till the end of the trial, i.e. at an average weight of 20 kg, the piglets received a starter feed. The trial feeds used are illustrated in table 2. During the whole trial period the piglets were fed ad libitum. The piglets under study were 120 weaned barrows and sows, with an age of 28 days at weaning. In the stable, 12 pens were present which contained each 10 piglets. For each trial, 3 replicates of 10 piglets were used. Ventilation and heating was automatically controlled. In each pen, 1 drinking nipple was present for water supply. Piglets were distinguished and weighed individually. They were allocated randomly to the different groups so that the average weight of each group was equal. A total of 120 animals was monitored. The following parameters were monitored during the trial: • the feed intake per trial group (measured at the end of the trial) • the weight of the individual animals (was measured at the beginning and at the end of the trial) • the feed conversion ratio per trial group was calculated • veterinary treatments and • mortality.

Compound	FCR [1]	Daily growth [1] [g/chicken/day]	FCR [2]	Mortality [2] [%]	Number of veterinary treatments [2]	Daily growth [2] [g/pig/day]
O=CO [control + formic acid, formic acid]	1.55	52.18	1.69	10.0	28	351
inulin [control + inulin]	1.65	51.09	1.78	10	32	330
OP(O)O [control + phophorous acid, phophorous acid]	1.56	52.23	1.69	6.6	30	346
COC[C@H]1O[C@@H](OC2OC[C@@H]3O[C@]4(O[C@H]3[C@H]2OC(=O)C(C)C)O[C@H](C)[C@@](O)(C(C)=O)[C@@H]2OCO[C@H]24)[C@@H](OC)[C@@H](O)[C@@H]1O[C@@H]1O[C@H](C)[C@H](OC)[C@H](O[C@H]2C[C@@]3(C)OC4(C[C@@H](O)[C@H](O[C@H]5C[C@@H](O)[C@H](OC(=O)c6c(C)c(Cl)c(O)c(Cl)c6OC)[C@@H](C)O5)[C@@H](C)O4)O[C@@H]3[C@@H](C)O2)[C@H]1O (stereo partly drawn) [control + Avilamycin, Avilamycin]	1.59	53.99	1.65	3.3	25	365
CC[C@@H](C(=O)[C@@H](C)[C@@H](O)[C@H](C)[C@@H]1O[C@@H]([C@@H](CC)C(=O)O)CC[C@@H]1C)[C@H]1O[C@]2(C=C[C@@H](O)[C@]3(CC[C@@](C)([C@H]4CC[C@](O)(CC)[C@H](C)O4)O3)O2)[C@H](C)C[C@@H]1C [control + Salinomycine, Salinomycine]	1.60	54.06	1.70	6.6	26	362
